Test [1] relates to C. albicans, non-albicans Candida spp. Aspergillus spp. in oral swabs from patients with oral candidiasis. The test is described as follows: Signs of fungal growth on 12 well plate test system supplemented with antifungal antibiotics. In kind it is cell-based. The conditions noted are these: naked eye examination, samples resistant to the antibiotic. The method, then:
Oral swabs (n=6) from patients with confirmed oral candidiasis caused by C. albicans, non-albicans Candida spp. Aspergillus spp., were dissolved with PBS and 0.1 uL were plated on 12 well plate test system filled with Mixed Medium 1 (see above), Mixed Medium 2 (Sabouraud agar+Potato Dextrose Agar+vitamins B12+B7) (MM2), Sabouraud agar (SA), Potato Dextrose Agar (PDA), Sabouraud's Heart Infusion (SABHI) agar. 11 wells were filled with media supplemented with antibiotics (taken at mean concentration of each antibiotic achieved in lungs at different timpoints post drug administration)—Nystatin, Amphotericin B, Clotrimazole, Fluconazole, Isavuconazole, Terbinafin, Posaconazole, Voriconazole, Anidulafungin, Caspofungin, Micafungin. One well was antibiotic free.
Plates was incubated at 30 C and the analysis of the presence/absence of microbial growth was monitored every 15 minutes from […] to 5 h, then hourly from 5 h to 8 h and then at 18 and 24 h post plating with a naked eye.
Three methods (algorithms) how to analyze fungal growth were used.
Method (Algorithm) #1. Lab technician, analyzed the appearance of fungal growth by comparing the signs of fungal growth in each well supplemented with antibiotic(s) at certain timepoint, with the signs of funal growth in the same well at previous time point(s).
Method (Algorithm)#2. Lab technician analyzed the appearance of fungal growth by comparing the signs of fungal growth in each well supplemented with antibiotic(s) with fungal growth in antibiotic-free control
Method (Algorithm) #3. Lab technician analyzed the absence of fungal growth in the wells in fixed time period of 3.5 h; 5 h and 24 h.

Test [2] concerns bacteria of endotracheal aspirate, sputum, BAL, wound swab from patients with ventilator associated pneumonia. Kind of test: Signs of bacterial growth on multi-well agar test system supplemented with antibiotics (naked eye or microscopy). In kind it is cell-based. As to the method: Endotracheal aspirate (n=3), sputum (n=3), BAL (n=2), wound swab (n=3) from patients with ventilator associated pneumonia were resuspended in PBS and 0.15 μL were plated on 24 well plate test system filled with Mixed medium (Columbia agar +Pepted Meat agar) (MM), Luria Broth (LB) agar, Pepted Meat agar (PMA), Columbia agar (CA), or Schaedler agar (SA).
Two wells were antibiotic free.
Biosamples were plated to the medium with a sterile swab with a slight pressure to the agar and making circular movements. Plates was incubated at 37 C and the analysis of the of microbial growth was monitored every 15 minutes from […] to 5 h, then hourly from 5 h to 8 h and then at 18 and 24 h post plating with a naked eye or with an AmScope microscope on 20× magnification with 12 mp camera.
Three methods (algorithms) how to analyze bacterial growth were used.
Method (Algorithm) #1. Lab technician, analyzed the appearance of bacterial growth by comparing the signs of bacterial growth in each well supplemented with antibiotic(s) at certain timepoint, with the signs of bacterial growth in the same well at previous time point(s).
Method (Algorithm)#2. Lab technician analyzed the appearance of bacterial growth by comparing the signs of bacterial growth in each well supplemented with antibiotic(s) with bacterial growth in antibiotic-free control
Method (Algorithm) #3. Lab technician analyzed the absence of bacterial growth in the wells in fixed time period of 3.0 h, 3.5 h; 4 h and 24 h.

The mark [3] stands for this setting: Method (Algorithm) #1, MM1 medium.
The mark [4] stands for this setting: Method (Algorithm) #1, MM2 medium.
Where [5] appears, read: Method (Algorithm) #1, PDA medium.
Where [6] appears, read: Method (Algorithm) #1, SA (Sabouraud agar).
Where [7] appears, read: Method (Algorithm) #1, SABHI medium.
Setting [8] is: Method (Algorithm) #2, MM1 medium.
[9] abbreviates: Method (Algorithm) #2, MM2 medium.
[10] abbreviates: Method (Algorithm) #2, PDA medium.
The mark [11] stands for this setting: Method (Algorithm) #2, SA (Sabouraud agar).
The mark [12] stands for this setting: Method (Algorithm) #2, SABHI medium.

Consider `C[C@@H]1[C@H](O)[C@@H](C)/C=C/C=C/CC/C=C/C=C/C=C/C=C/C(O[C@H]2O[C@H](C)[C@@H](O)[C@H](N)[C@@H]2O)CC2O[C@](O)(CC(O)C(O)CCC(O)CC(O)CC(O)CC(=O)O[C@H]1C)CC(O)C2C(=O)O` (stereo partly drawn) [Nystatin], for which the “Mean hour at which fungal growth became visible on the wells supplemented with a certain antibiotic” value in test [1] (setting [3]) is 4 h; in test [1] (setting [4]), 4.5 h; in test [1] (setting [5]) it was 5 h; in test [1] (setting [6]), 6 h; in test [1] (setting [7]), 5.5 h; in test [1] (setting [8]), 4.5 h. Also, the “Mean hour at which fungal growth became visible on the wells supplemented with a certain antibiotic” value in test [1] (setting [9]) stood at 6 h; in test [1] (setting [10]), 6.5 h; in test [1] (setting [11]), 6 h; in test [1] (setting [12]), 7.5 h.

With `CC[C@@H]([C@H](C)O)n1ncn(-c2ccc(N3CCN(c4ccc(OC[C@@H]5CO[C@@](Cn6cncn6)(c6ccc(F)cc6F)C5)cc4)CC3)cc2)c1=O` [Posaconazole], the “Mean hour at which fungal growth became visible on the wells supplemented with a certain antibiotic” value in test [1] (setting [3]) is 3.5 h; in test [1] (setting [4]) it was 4.5 h; in test [1] (setting [5]), 5 h; in test [1] (setting [6]), 5 h; in test [1] (setting [7]) it was 5.5 h; in test [1] (setting [8]) it was 4.5 h. Also, the “Mean hour at which fungal growth became visible on the wells supplemented with a certain antibiotic” value in test [1] (setting [9]) was 5 h; in test [1] (setting [10]), 8.5 h; in test [1] (setting [11]) it was 7 h; in test [1] (setting [12]) it was 7 h.

With `CN(C/C=C/C#CC(C)(C)C)Cc1cccc2ccccc12` [Terbinafin], the “Mean hour at which fungal growth became visible on the wells supplemented with a certain antibiotic” value amounted to 4.5 h in test [1] (setting [3]); 5 h in test [1] (setting [4]); 5 h in test [1] (setting [5]); 5 h in test [1] (setting [6]); 5 h in test [1] (setting [7]); 4.5 h in test [1] (setting [8]). The “Mean hour at which fungal growth became visible on the wells supplemented with a certain antibiotic” value in test [1] (setting [9]) was determined as 5.5 h; in test [1] (setting [10]), 8 h; in test [1] (setting [11]) it was 6.5 h; in test [1] (setting [12]), 6.5 h.

Consider `C[C@@H](c1ncncc1F)[C@](O)(Cn1cncn1)c1ccc(F)cc1F` [Voriconazole], for which the “Mean hour at which fungal growth became visible on the wells supplemented with a certain antibiotic” value in test [1] (setting [3]) turned out to be 4 h; in test [1] (setting [4]), 4.5 h; in test [1] (setting [5]), 5.5 h; in test [1] (setting [6]), 4.5 h; in test [1] (setting [7]), 5.5 h; in test [1] (setting [8]) it was 4.5 h. For the same compound, the “Mean hour at which fungal growth became visible on the wells supplemented with a certain antibiotic” value in test [1] (setting [9]) is 4.5 h; in test [1] (setting [10]) it was 6.5 h; in test [1] (setting [11]), 8 h; in test [1] (setting [12]), 7 h.

In the case of Piperacillin-tazobactam, the “Mean hour at which bacterial growth became visible on the wells supplemented with a certain antibiotic” value in test [2] (microscopy examination, Method (Algorithm) #1, CA medium) came to 3.5 h; in test [2] (microscopy examination, Method (Algorithm) #1, LB medium) it was 4 h; in test [2] (microscopy examination, Method (Algorithm) #1, MM medium), 3.5 h; in test [2] (microscopy examination, Method (Algorithm) #1, PMA medium), 3.5 h; in test [2] (microscopy examination, Method (Algorithm) #1, SA medium), 3.5 h; in test [2] (microscopy examination, Method (Algorithm) #2, CA medium) it was 3.5 h. Besides, the “Mean hour at which bacterial growth became visible on the wells supplemented with a certain antibiotic” value amounted to 4 h in test [2] (microscopy examination, Method (Algorithm) #2, LB medium); 4 h in test [2] (microscopy examination, Method (Algorithm) #2, MM medium); 4 h in test [2] (microscopy examination, Method (Algorithm) #2, PMA medium); 3.5 h in test [2] (microscopy examination, Method (Algorithm) #2, SA medium); 3.5 h in test [2] (naked eye examination, Method (Algorithm) #1, CA medium, samples resistant to the antibiotic); 4 h in test [2] (naked eye examination, Method (Algorithm) #1, LB medium, samples resistant to the antibiotic). For the same compound, the “Mean hour at which bacterial growth became visible on the wells supplemented with a certain antibiotic” value in test [2] (naked eye examination, Method (Algorithm) #1, MM medium, samples resistant to the antibiotic) is 3.5 h; in test [2] (naked eye examination, Method (Algorithm) #1, PMA medium, samples resistant to the antibiotic), 3.5 h; in test [2] (naked eye examination, Method (Algorithm) #1, SA medium, samples resistant to the antibiotic) it was 4 h; in test [2] (naked eye examination, Method (Algorithm) #2, CA medium, samples resistant to the antibiotic), 5.5 h; in test [2] (naked eye examination, Method (Algorithm) #2, LB medium, samples resistant to the antibiotic), 5 h; in test [2] (naked eye examination, Method (Algorithm) #2, MM medium, samples resistant to the antibiotic), 4 h. The “Mean hour at which bacterial growth became visible on the wells supplemented with a certain antibiotic” value turned out to be 4 h in test [2] (naked eye examination, Method (Algorithm) #2, PMA medium, samples resistant to the antibiotic) and 5.5 h in test [2] (naked eye examination, Method (Algorithm) #2, SA medium, samples resistant to the antibiotic).

Source of the values: patent US20240182945A1, “PRODUCTS FOR REGULATION OF EUKARYOTIC AND MICROBIAL CELLS GROWTH” (priority 2021, published 2024).
